Source: publication PMC12921516 (ACS Bio & Med Chem Au, 2025)

Legend:
[1] = test system: STZ-induced diabetic CD-1 mice; assay: Insulin tolerance test (ITT); type: in vivo; conditions: single intragastric dose 50 mg/kg, insulin 0.75 IU after 30 min
Experimental: The studies were carried out on compounds 4b, 4g, and 5g using both normoglycemic CD1 mice and a mouse model of noninsulin-dependent diabetes mellitus (NIDDM). An oral glucose tolerance test (OGTT) was conducted on the normoglycemic mice to evaluate the hypoglycemic activity of the compounds, while an insulin tolerance test (ITT) was performed on hyperglycemic CD1 mice to assess the compounds' capacity to enhance insulin sensitivity in streptozotocin-induced diabetic mice. Pioglitazone and GA were included as positive controls. […] Healthy six-week-old male CD-1 mice, weighing between 30 and 40 g, were maintained at a temperature of 25 ± 2 °C, under a 12-h light/dark cycle and 45-65% humidity throughout the experimental period. The mice were provided with a rodent pelleted diet (Harlan Laboratories, Indianapolis, USA) and had access to water ad libitum. Sixteen hours before the experiment, all mice were fasted but still had free access to water. All animal procedures were conducted in accordance with the Mexican Federal Regulations for Animal Experimentation and Care (SAGARPA, NOM-062-ZOO-1999, Mexico) and received approval from the Institutional Animal Care and Use Committee, following guidelines outlined in the US National Institutes of Health publication (No. 85-23, revised 1985). Streptozotocin (STZ) was dissolved in citrate buffer (pH 4.5), while nicotinamide was dissolved in a normal physiological saline solution. The noninsulin-dependent diabetes (NIDD) mouse model was induced in overnight-fasted mice through a single intraperitoneal injection of STZ (100 mg/kg). Nicotinamide was administered 15 min prior, at a dose of 20 mg/kg via intraperitoneal injection. […] Roche). […] Animals were categorized into five groups, each consisting of four mice (n = 4). The experimental groups received an oral suspension of compounds 4b, 4g, and 5g, prepared in a 10% Tween 20/water solution, at a dosage of 50 mg/kg body weight. A control group was treated with only the 10% Tween 20 solution. The final group was administered pioglitazone at a dose of 45 mg/kg, which is recognized as a reference drug for insulin sensitization. To evaluate glucose levels, blood samples were collected from the tails of the mice at 0, 30, 60, 90, and 120 min after the administration of the vehicle, test compound, or drug. Blood glucose concentration was measured using a commercial glucometer (Accu-Chek, Performa; Roche) and the enzymatic glucose dehydrogenase method. The percentage variation in glycemia was calculated by comparing the selected postadministration glycemia (G x ) with the initial value (G0) using the following formula: %[…]=[(Gx-G0)/G0]×100 where G0 represents the initial glycemia values and Gx indicates the glycemia values at +30, + 60, + 90, and +120 min, respectively. To evaluate the ability of GA derivatives to enhance insulin sensitivity in STZ-induced diabetic CD-1 mice, compounds 4b, 4g, and 5g were tested. Glycyrrhetinic acid (GA) and Pioglitazone served as positive controls. The GA derivatives and the positive controls were administered to the diabetic animals, followed by the administration of human rapid-acting insulin (0.75 IU) after 30 min. Subsequently, glucose levels were measured every 15 min.

hPTP1B1–400 [2] = molecular target: T1, hPTP1B1–400 (Homo sapiens, UniProt P18031); assay: PTP1B inhibition, pNPP hydrolysis, long form; type: biochemical; conditions: pNPP substrate, 15 min 37 °C, pH 6.8; ± S.D
T1 construct: h PTP1B 1–400 IC 50 (μM ± S.D); made in house
T1 sequence (P18031 1-400): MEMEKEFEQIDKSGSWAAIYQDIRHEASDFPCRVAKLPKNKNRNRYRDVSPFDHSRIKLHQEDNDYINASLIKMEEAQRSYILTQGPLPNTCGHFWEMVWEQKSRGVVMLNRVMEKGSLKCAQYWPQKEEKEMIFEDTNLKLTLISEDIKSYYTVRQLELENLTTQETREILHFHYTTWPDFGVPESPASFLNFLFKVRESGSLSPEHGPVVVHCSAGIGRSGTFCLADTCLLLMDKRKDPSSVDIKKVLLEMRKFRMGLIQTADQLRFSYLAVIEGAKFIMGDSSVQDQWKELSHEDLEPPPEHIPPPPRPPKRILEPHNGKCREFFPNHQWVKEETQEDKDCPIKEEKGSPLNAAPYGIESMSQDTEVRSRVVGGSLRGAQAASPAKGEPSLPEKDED
Experimental: The inhibitory activity of PTP1B was assessed using the long form of the PTP1B enzyme (hPTP1B1–400). This enzyme comprises a highly conserved N-terminal catalytic domain, known as the PTP domain (PTP1B1–300), in addition to an intrinsically disordered regulatory domain (PTP1B301–400).
The IC50 values obtained from these tests are detailed in Table .
Aliquots of 0–10 μL of the test compounds (triplicate) were taken and incubated for 15 min at 37 °C with 85 μL of Tris buffer solution (50 mM, pH 6.8) containing PTP1B enzyme and 5 μL of p-nitrophenyl phosphate substrate (pNPP, 10 mM). The absorbance of the hydrolysis product, p-nitrophenol (pNP), was measured at 405 nm using a 96-microplate absorbance reader (Accuris SmartReader 96). The inhibitory activity was determined according to eq . %enzyme=(A405b/A405c)×100 1 Where: % enzyme is the percentage of inhibition for PTP1B or TCPTP
The IC50 was calculated using regression analysis, eq : %inhibition=A100/1+(I/IC50)^s 2 Where: A100: Maximum inhibition

hPTP1B1–400 [3] = molecular target: T1, hPTP1B1–400; assay: Enzymatic kinetics studies (Lineweaver–Burk, model fitting); type: biochemical; conditions: for inhibition type: hPTP1B1–400, best fit model; for Ki: hPTP1B1–400, pNPP 0.1–0.5 mM; for Km / Vmax: hPTP1B1–400 with inhibitor
Experimental: Kinetic analyses were conducted using varying concentrations of substrate and inhibitor.
Five increasing concentrations of each inhibitor were tested, according to their previously determined IC50 values. The negative control was prepared by omitting the inhibitor in the presence of the enzyme and substrate. The Supporting Information includes detailed eqs (E1–E5) used to determine the kinetic parameters and mechanisms involved in PTP1B inhibition.
Equation 1 was used to obtain enzyme kinetic parameters by fitting data to the Michaelis-Menten model (Origin Pro
The equations defined for the following non-linear inhibition models were used to determine the mechanism of
PTP1B inhibition: competitive (E2), non-competitive (E3), uncompetitive (E4), and mixed (E5) (Origin Pro 2018 (64
(1+ ( ))(x05nh ) + (1+ ( )) (x05 nh)
Vmax is the maximum velocity, x is the substrate concentration, i is the inhibitor concentration, nh is the number of
Hill. Ki is the inhibition constant, and Km is the Michaelis constant.

`CC1(C)[C@@H](O)CC[C@]2(C)[C@H]3C(=O)C=C4[C@@H]5C[C@@](C)(C(=O)O)CC[C@]5(C)CC[C@@]4(C)[C@]3(C)CC[C@@H]12` [GA, Glycyrrhetinic acid, reference compound] was tested, and the “glycemia variation in ITT” value [1] was “markedly decrease glycemia variation”.
For `CC1(C)c2[nH]c3ccc(OC(F)(F)F)cc3c2C[C@]2(C)[C@H]3C(=O)C=C4[C@@H]5C[C@@](C)(C(=O)O)CC[C@]5(C)CC[C@@]4(C)[C@]3(C)CC[C@@H]12` [compound 4a, (20β)-5′-(Trifluoromethoxy)-11-oxo-1′H-oleana-2,12-dieno[3,2-b]indol-29-oic Acid], the IC50 (hPTP1B1–400 [2]) was 2.13 ± 0.13 µM, the inhibition type (hPTP1B1–400 [3]) was “uncompetitive” and the Ki (hPTP1B1–400 [3]) was 0.74 ± 0.1 µM. The Km (hPTP1B1–400 [3]) was 1840 ± 190 µM and the Vmax (hPTP1B1–400 [3]) was 1.06 ± 0.24 mM/min.
`CC1(C)c2[nH]c3ccc(SC(F)(F)F)cc3c2C[C@]2(C)[C@H]3C(=O)C=C4[C@@H]5C[C@@](C)(C(=O)O)CC[C@]5(C)CC[C@@]4(C)[C@]3(C)CC[C@@H]12` [compound 4c, (20β)-5′-(Trifluormethylthio)-11-oxo-1′H-oleana-2,12-dieno[3,2-b]indol-29-oic Acid] showed an IC50 (hPTP1B1–400 [2]) of 5.6 ± 0.12 µM.
`CC1(C)c2[nH]c3ccc(C#N)cc3c2C[C@]2(C)[C@H]3C(=O)C=C4[C@@H]5C[C@@](C)(C(=O)O)CC[C@]5(C)CC[C@@]4(C)[C@]3(C)CC[C@@H]12` [compound 4d, (20β)-5′-Cyano-11-oxo-1′H-oleana-2,12-dieno[3,2-b]indol-29-oic Acid] was tested, and the IC50 (hPTP1B1–400 [2]) was 22.4 ± 0.53 µM.
In the case of `CC1(C)c2[nH]c3ccc(C(=O)O)cc3c2C[C@]2(C)[C@H]3C(=O)C=C4[C@@H]5C[C@@](C)(C(=O)O)CC[C@]5(C)CC[C@@]4(C)[C@]3(C)CC[C@@H]12` [compound 4e, (20β)-5′-Carboxy-11-oxo-1′H-oleana-2,12-dieno[3,2-b]indol-29-oic Acid], the IC50 (hPTP1B1–400 [2]) is reported as 4.33 ± 0.58 µM, the inhibition type (hPTP1B1–400 [3]) is reported as “uncompetitive” and the Ki (hPTP1B1–400 [3]) is reported as 4.05 ± 0.67 µM. It also gave a Km (hPTP1B1–400 [3]) of 990 ± 190 µM and a Vmax (hPTP1B1–400 [3]) of 1.64 ± 0.23 mM/min.
With `CC1(C)c2[nH]c3ccc(C(N)=O)cc3c2C[C@]2(C)[C@H]3C(=O)C=C4[C@@H]5C[C@@](C)(C(=O)O)CC[C@]5(C)CC[C@@]4(C)[C@]3(C)CC[C@@H]12` [compound 4f, (20β)-5′-Carbamoyl-11-oxo-1′H-oleana-2,12-dieno[3,2-b]indol-29-oic Acid] the IC50 (hPTP1B1–400 [2]) was 9.3 ± 0.25 µM.
Compound `CC1(C)c2c(cnn2-c2ccc(OC(F)(F)F)cc2)C[C@]2(C)[C@H]3C(=O)C=C4[C@@H]5C[C@@](C)(C(=O)O)CC[C@]5(C)CC[C@@]4(C)[C@]3(C)CC[C@@H]12` [compound 5a, (20β)-11-Oxo-2′-[4-(trifluoromethoxy)phenyl]-2′H-oleana-2,12-dieno[3,2-c]pyrazol-29-oic acid] has an IC50 (hPTP1B1–400 [2]) of 2.29 ± 0.15 µM.
`CC1(C)c2c(cnn2-c2ccc(OC(F)F)cc2)C[C@]2(C)[C@H]3C(=O)C=C4[C@@H]5C[C@@](C)(C(=O)O)CC[C@]5(C)CC[C@@]4(C)[C@]3(C)CC[C@@H]12` [compound 5b, (20β)-2′-[4-(Difluoromethoxy)phenyl]-11-Oxo-2′H-oleana-2,12-dieno[3,2-c]pyrazol-29-oic Acid] showed an IC50 (hPTP1B1–400 [2]) of 6.19 ± 0.58 µM.
`CC1(C)c2c(cnn2-c2ccc(SC(F)(F)F)cc2)C[C@]2(C)[C@H]3C(=O)C=C4[C@@H]5C[C@@](C)(C(=O)O)CC[C@]5(C)CC[C@@]4(C)[C@]3(C)CC[C@@H]12` [compound 5c, (20β)-11-Oxo-2′-[4-(trifluoromethylthio)phenyl]-2′H-oleana-2,12-dieno[3,2-c]pyrazol-29-oic Acid] gave an IC50 (hPTP1B1–400 [2]) of 2.08 ± 0.04 µM.
Compound `CC1(C)c2c(cnn2-c2ccc(C#N)cc2)C[C@]2(C)[C@H]3C(=O)C=C4[C@@H]5C[C@@](C)(C(=O)O)CC[C@]5(C)CC[C@@]4(C)[C@]3(C)CC[C@@H]12` [compound 5d, (20β)-2′-(4-Cyanophenyl)-11-oxo-2′H-oleana-2,12-dieno[3,2-c]pyrazol-29-oic Acid] has an IC50 (hPTP1B1–400 [2]) of 6.83 ± 0.17 µM.
For `CC1(C)c2c(cnn2-c2ccc(C(N)=O)cc2)C[C@]2(C)[C@H]3C(=O)C=C4[C@@H]5C[C@@](C)(C(=O)O)CC[C@]5(C)CC[C@@]4(C)[C@]3(C)CC[C@@H]12` [compound 5f, (20β)-2′-(4-Carbamoylphenyl)-11-oxo-2′H-oleana-2,12-dieno[3,2-c]pyrazol-29-oic Acid], the IC50 (hPTP1B1–400 [2]) was 10.3 ± 0.51 µM.
